Results reported in patent US10576147B2, “Muramyl peptide derivative compound, synthesis and uses thereof” (BHARAT BIOTECH INTERNATIONAL LIMITED, priority 2015, dated 2020).
Converted amounts (≈) assume the structure as drawn.

Tested on: J774.2A cells
Assay: Cytotoxicity assay (MTT)
Assay type: cell-based
Conditions: 24 hrs, read-out: IC50 (50% cell death or toxicity)
Description: Details of an assay are as explained in example 2.2.
J774.2A cells (2×10^4/well) were plated and incubated overnight. Next day, cells were treated with various concentrations of MDP-MN (10 fold dilutions with a concentration ranging from 0.005 mg/ml to 0.5 mg/ml & 2 mg/ml) and cultured for 24 hrs. Supernatant was discarded and cells were treated with 100 μl of MTT [3-(4,5-Dimethylthiazol-2-yl)-2,5-Diphenyltetrazolium Bromide] (5 mg/ml) and incubated for 3-4 hrs until formozan crystals were formed. Later, supernatant was discarded and crystals were dissolved with DMSO for 5-10 min. Absorbance was read at 540 nm. FIG. 2 represents cell toxicity effect of MDP-MN. X-axis represents concentration in log scale and Y-axis represents % toxicity.

C[C@H](NC(=O)[C@@H](C)O[C@H]1[C@H](O)[C@@H](CO)OC(O)[C@@H]1NC(=O)[C@H](O)CO)C(=O)N[C@H](CCC(=O)O)C(N)=O (stereo partly drawn) [MDP-MN, (4R)-5-amino-4-((2S)-2-((2R)-2-(((3R,4R,5S,6R)-3-((2,3-dihydroxypropanamido))-2,5-dihydroxy-6-(hydroxymethyl)tetrahydro-2H-pyran-4-yl)oxy)propanamido)propanamido)-5-oxopentanoic acid]
IC50: 99.2 µg/mL (≈ 184 µM)
